Patent US9820951B2, “Pulmonary disease treatment and diagnosis based on Arhgef1” (NATIONAL JEWISH HEALTH, A NON-PROFIT ORGANIZATION, priority 2011, dated 2017)

How the values were obtained:
[1] = test system: Mmp9; assay: MMP9 activity in BAL of Arhgef1−/− mice after aerosol exposure; type: in vivo, mouse; conditions: inhalation of aerosol 20 min (220 μM PTXA2, 190 μM U-46619), BAL 24 hours later
Protocol: (§1) FIG. 4. TP signaling is required for MMP9 production in vitro and in vivo. A) Macrophage Mmp9 expression after culture on fibronectin for 24 hrs in media/vehicle (−), 40 nM S1P, 10 μM LPA, 10 nM U-46619 (TP agonist) or 6 μM PTXA2 (TP antagonist). Data represent normalized mean±SE. B) Arhgef1−/− mice (n=16) were exposed to aerosolized PBS (n=16), 220 μM PTXA2 (n=6) or 190 μM U-46619 (n=10) for 20 minutes and BAL harvested 1 day later and MMP activity measured.

[2] = test system: Mmp9; assay: Mmp9 expression by qPCR in mouse peritoneal macrophages cultured on fibronectin; type: cell-based; conditions: wild type and Arhgef1-deficient macrophages on fibronectin; 40 nM S1P, 10 μM LPA, 6 μM PTXA2; 24 h
Protocol: as §1
FIG. 12. Thromboxane receptor signaling is necessary for fibronectin-induced MMP9 production by macrophages and is attenuated by Arhgef1. A, representative gelatin zymograms of conditioned media from macrophages cultured on plastic (ctl) or FN and treated with 1.56 or 6.25 μM of the thromboxane receptor antagonist PTA2. Wild type (+/+) and Arhgef1^−/− (−/−) samples from separate zymograms are shown. B, quantitation of MMP9 activity as determined by densitometric analysis of zymograms in A. The results are representative of two independent experiments. C, representative zymograms from conditioned media from macrophages cultured on plastic or fibronectin and treated with 28 μM of the thromboxane receptor antagonist L-655,240. D, quantitation of MMP9 activity as determined by densitometric analysis of zymograms in C. The results are compiled from two independent experiments with n=4 for both wild type (open bars) and Arhgef1^−/− (black bars) samples. The data represent the means±S.E. *, p<0.05 Student's two-tailed t test compared with conditioned media from cells cultured on plastic. #, p<0.05 Student's two-tailed t test comparing conditioned media from wild type cells to Arhgef1^−/− cells cultured under identical conditions. $, p<0.05 Student's two-tailed t test compared with conditioned media from cells cultured on fibronectin. E, MMP2 activity was quantitated in conditioned media as previously described for MMP9. The results are compiled from four independent experiments with n=10 for wild type (open bars) and Arhgef1^−/− (black bars) samples cultured on either plastic or fibronectin. For cells treated with 20 mM aspirin, n=6 for wild type (open bars) and Arhgef1^−/− (black bars) samples. For cells treated with 28 μM L-655,240, n=4 for wild type (open bars) and Arhgef1^−/− (black bars) samples. The data represent the means±S.E. F, MMP9 activity was quantitated as previously described and normalized to a percentage of fibronectin response for each genotype. The cells were either untreated or treated with 0.5% Me2SO or 28 μM L-655,240. The results are compiled from two independent experiments with n=3 for all conditions and genotypes. The data represent the means±S.E. *, p<0.05 Student's two-tailed t test compared with conditioned media from cells cultured on fibronectin. G, relative Mmp9 expression was measured by qPCR in macrophages cultured on fibronectin in the presence of the thromboxane receptor agonist (U-46619, 10 nM), S1P (40 nM), or LPA (10 μM). […] Wild type (open bars, n=12, 6, 3, and 3 for fibronectin, +U-46619, +S1P, and +LPA, respectively) and Arhgef1^−/− (black bars, n=14, 6, 3, and 2, respectively) from at least two independent experiments. The data represent the means±S.E. *, p<0.05 Student's two-tailed t test compared with conditioned media from cells cultured on fibronectin, #, p<0.05 Student's two-tailed t test comparing conditioned media from wild type cells to Arhgef1^−/− cells cultured under identical conditions. […]

[3] = test system: MMP2; assay: MMP2 activity by gelatin zymography in conditioned media of mouse peritoneal macrophages cultured on fibronectin; type: cell-based; conditions: wild type and Arhgef1−/− macrophages; 20 mM aspirin or 28 μM L-655,240
Protocol: FIG. 12. Thromboxane receptor signaling is necessary for fibronectin-induced MMP9 production by macrophages and is attenuated by Arhgef1. A, representative gelatin zymograms of conditioned media from macrophages cultured on plastic (ctl) or FN and treated with 1.56 or 6.25 μM of the thromboxane receptor antagonist PTA2. Wild type (+/+) and Arhgef1^−/− (−/−) samples from separate zymograms are shown. B, quantitation of MMP9 activity as determined by densitometric analysis of zymograms in A. The results are representative of two independent experiments. C, representative zymograms from conditioned media from macrophages cultured on plastic or fibronectin and treated with 28 μM of the thromboxane receptor antagonist L-655,240. D, quantitation of MMP9 activity as determined by densitometric analysis of zymograms in C. The results are compiled from two independent experiments with n=4 for both wild type (open bars) and Arhgef1^−/− (black bars) samples. […] E, MMP2 activity was quantitated in conditioned media as previously described for MMP9. […] The data represent the means±S.E. F, MMP9 activity was quantitated as previously described and normalized to a percentage of fibronectin response for each genotype. […] G, relative Mmp9 expression was measured by qPCR in macrophages cultured on fibronectin in the presence of the thromboxane receptor agonist (U-46619, 10 nM), S1P (40 nM), or LPA (10 μM). […]

CCCCC[C@@H](O)/C=C/[C@H]1C[C@H]2C[C@@H]([C@@H]1C/C=C\CCCC(=O)O)C2(C)C (relative stereo) [PTXA2, (18-(1alpha,2beta(Z),3alpha(1E,3S*),5alpha))-7-(3-(3-Hydroxy-1-octenyl)-6,6-dimethylbicyclo(3.1.1)hept-2-yl)-5-heptenoic acid]
MMP9 activity in BAL [1]: considerably diminished MMP9 activity
Mmp9 expression [2]: ablated Mmp9 expression

CC(=O)Oc1ccccc1C(=O)O [aspirin]
MMP2 activity [3]: not affected
